Molecules are shown by their SMILES. Where two headings read alike, the source gives them in different places.

In data set [1] the test system is rabbits. Kind of data set: Replacement of enflurane anesthesia by ATP infusion, electrical tail stimulation and tail clamp.
Data set [2] in a line: Anesthesia score chart comparing anesthetic agents for the four components of anesthesia (Table 1). Also on record: key: 0 no effect; 1 minimal; 2 mostly; 3 maximal. Conditions: for Antinociception (analgesia, less pain perception) / Inhibition of Stress (autonomic responses: blood pressure, heart rate; endocrine and metabolic responses) / Muscle Relaxation / Sleep (unconsciousness, amnesia, sedation): Anesthesia Score 0 to 3; for TOTALS of Anesthesia Score: sum of the four components.

The test system of the next data set is experimental animals. Nature of the data set: Lethal to effective dose margin. The format is in vivo. The conditions noted are these: in vivo. How it is done: In contrast to other conventional anesthetics, the adenosine compounds are useful over a wide dose range. For example, adenosine is active over a as range of between 1 to 5000 μg/kg/min. In contrast, conventional anesthetic agents, such as isoflurane, have narrow effective ranges. The fatal to effective anesthetic ratio of isoflurane is 3.02±0.13. Other reports indicate that isoflurane has about 1.88 times the safety range of halothane. […] Of course, the anesthesiologist will err on the side of administering too little and, thereby, runs the risk of underdosing the patient. This need for caution may result in an inadequately anesthetized (subanesthetized) patient during the surgical procedure.
One great advantage observed with adenosine compounds is the wide margin for error on effective therapeutic range. This advantage is exemplified by adenosine where the lethal dose is about 100 times the dose required for analgesia, and ATP where the lethal dose is greater than 150 times the amount required for analgesia.

Data set [3] deals with rabbits. Conditions: rabbit, in vivo.
The test system of data set [4] is New Zealand white rabbits. Kind of data set: Electrical tail stimulation screening: head lift (hypnotic) and escape movement (analgesic) thresholds. The conditions noted are these: for EM (purposeful escape movement, analgesic) threshold responses / HL (head lift, hypnotic) threshold responses: increasing doses, 60% N2O baseline sedation, FIG. 1. The format is in vivo, rabbit.

The test system of data set [5] is rabbits. Kind of data set: Hypothermia induced under adenosine or ATP infusion. Format: in vivo, rabbit. How it is done:
The hypothermic and rewarming effects of an adenosine compound are tested in experimental animals prepared similarly as in the rabbit model described herein to test for anesthetic effects, except that the body temperature is allowed to fall. In animal studies (rabbit) where the room has a temperature of approximately 22° C., the body temperature will fall from a norm of about 39° C. to about 32° C. in about three hours. If the animal is cooled further with ice bags, a temperature of approximately 22° C. can be achieved in three hours without cardiovascular decompensation. Rewarming is done with the aid of a thermal blanket and heat lamp. The effective dosages of adenosine compound ranged from about 100 μg/kg/min to about 5000 μg/kg/min.
Referring to FIG. 7, the body temperature versus time plots are shown for eight different experiments. In Run 1, adenosine 500 μg/kg/min was administered intravenously to rabbits for six hours. The administration was then stopped and the body temperatures were allowed to recover.
In Run 2, ATP 500 μg/kg/min was administered intravenously for six hours. At that time, the body temperature was 31.5° C. The animal's body temperature was allowed to recover by applying external heating for four hours when (at the arrow) the external heating was removed and the temperature was allowed to fall. The body temperature again fell.
In Run 3, ATP was administered intravenously. The body temperature stabilized after ten hours at 32.5° C.
In Runs 4, 5, and 6, adenosine was administered to rabbits until the body temperature reached a constant value. In Run 4, after five hours, the body temperature stabilized at 33° C. In Run 6, after six hours, the temperature stabilized at 31.5° C.
In Run 7, five unmedicated New Zealand rabbits were anesthetized with halothane in O2 using a face mask. The ear vein was cannulated with a 22 gauge plastic catheter for drug infusion. 500 μg/kg/min to 5500 μ/kg/min adenosine was administered IV. Body temperature was monitored through a rectal thermometer. The body temperature started at approximately 38.5° C. After the application of ice bags, the temperature dropped approximately 5.5° C./hr until a minimum body temperature of approximately 22° C. was achieved.
The ice bags were removed and external heating applied. The body temperature of all rabbits returned to normal, and the rabbits were apparently normal.
In a comparison, in Run 8, six rabbits were anesthetized with isofluane and external cooling applied.

Data set [6] has as its system rabbits. Nature of the data set: Analgesic activity of adenosine compared with morphine sulfate, tail/ear clamp and electrical stimulation.
The test system of data set [7] is New Zealand white rabbits.
[8] abbreviates: N2O 60%, ENF 2.0-[…], ATP 362 ± 164 μg/kg/min, Mean ± SD, n = 6.
The mark [9] stands for this setting: Run 7, 500 to 5500 μg/kg/min IV, ice bags.
The mark [10] stands for this setting: under 60% N2O, n = 6, Mean ± SD.

Take `FC(F)OC(F)(F)C(F)Cl` (centres unmarked) [ENF, enflurane, reference compound]: in the data set on rabbits [1] (setting [8]), the DBP amounted to 49 ± 18 mmHg, the HR is on record as 255 ± 33 bpm, the PaCO2 was found to be 25 ± 1 mmHg and the PaO2 is 148 ± 16 mmHg. Moreover, in the data set with rabbits [1] (setting [8]), the “RR (Respiratory Rate)” value is 72 ± 19 bpm and the SBP is recorded as 69 ± 22 mmHg. In the data set with rabbits [1] (under 60% N2O), the “ENF level that completely inhibits responses to tail clamp” value is 2-2.5%. Further, in data set [2], the “Antinociception (analgesia, less pain perception)” value (“Antinociception” below) was determined as 1; the “Inhibition of Stress (autonomic responses: blood pressure, heart rate; endocrine and metabolic responses)” value (shortened to “Inhibition of Stress”) was 1; the “Muscle Relaxation” value is listed as 1; the “Sleep (unconsciousness, amnesia, sedation)” value (“Sleep” below) came out at 3. For the same compound, in data set [2], the “TOTALS of Anesthesia Score” value is given as 6.
Turning to `[N-]=[N+]=O` [Nitrous Oxide, nitrous oxide], in data set [2], the “Antinociception” value is 1; the “Inhibition of Stress” value was 1; the “Muscle Relaxation” value came to 0; the “Sleep” value amounted to 1. Also, in data set [2], the “TOTALS of Anesthesia Score” value is recorded as 3.
Turning to `Nc1ncnc2c1ncn2[C@@H]1O[C@H](CO)[C@@H](O)[C@H]1O` [adenosine], in the data set with experimental animals, the “lethal dose relative to the dose required for analgesia” value is recorded as “about 100 times”. Besides, in the data set with rabbits [3], the “BP (Systolic BP)” value stood at 101 ± 19 mmHg, the HR stood at 230 ± 24 bpm, the PaCO2 is reported as 25 ± 4 mmHg and the PaO2 came out at 126 ± 8 mmHg. In addition, in the data set on rabbits [3], the “RR (Respiratory Rate)” value was 85 ± 19 bpm. Besides, the “drug accumulation or respiratory depression” value in data set [4] (continuous infusion for prolonged times) is reported as “did not cause drug accumulation or respiratory depression”. Moreover, in data set [4], the “EM (purposeful escape movement, analgesic) threshold responses” value is listed as “elevated EM responses” and the “HL (head lift, hypnotic) threshold responses” value is recorded as “remained low”. For the same compound, the “hemodynamic responses to noxious stimulation” value in data set [4] (rabbit, in vivo) is on record as “effectively blocked”. Moreover, the “respiratory and blood gas effects” value in data set [4] (spontaneously breathing rabbits) was “maintained normal respiratory and blood gas parameters”. Also, the “body temperature at which it stabilized” value in the data set on rabbits [5] (Run 4, after five hours) is 33 °C. Also, in the data set on rabbits [5] (Run 6, after six hours), the “body temperature at which it stabilized” value was 31.5 °C. In the data set on rabbits [5] (setting [9]), the “minimum body temperature achieved” value was “approximately 22 °C” and the “rate of body temperature drop” value is reported as “approximately 5.5 ° C./hr”. In addition, the “survival during body temperature lowering” value in the data set with rabbits [5] (external cooling, Run 7 (five rabbits), Run 8 (six rabbits)) is recorded as “All five rabbits survived”. Further, the “shivering during body temperature lowering” value with rabbits [5] (external cooling, Run 7, Run 8) is recorded as “no shivering or other apparent discomfort was observed”. In addition, the “dose that completely suppressed the responses to both kinds of stimulation (ED90)” value with rabbits [6] (under 60% N2O, infusion, n = 6) is 188 ± 20 µg/kg/min. In addition, in data set [7] (intrathecal administration), the “reduction of the response to the noxious stimulation” value is reported as “as effective as intrathecal fentanyl”. Moreover, in data set [7] (rabbit, in vivo), the “Δ HR” value is listed as −22 ± 5 bpm, the “Δ MAP” value was −4 ± 5 mmHg, the “Δ PaCO2” value is −6.8 ± 2.1 mmHg and the “Δ PaO2” value was “+10 ± 14”. For the same compound, the “Δ RR” value in data set [7] (rabbit, in vivo) is on record as −4 ± 10 bpm.
Regarding `Cn1c(=O)c2[nH]cnc2n(C)c1=O` [aminophylline, reference compound], the “reversal of sustained analgesia after discontinuation of ATP” value in the data set on rabbits [1] (IV aminophylline) is “partially reversed”. Further, the “reversal of adenosine induced analgesia” value in the data set with rabbits [6] (aminophylline 5-10 mg/kg) is on record as “consistently reversed”.
For the compound `FC(F)(F)C(Cl)Br` (centres unmarked) [halothane], in data set [4], the “EM (purposeful escape movement, analgesic) threshold responses” value is listed as “consistently elevated” and the “HL (head lift, hypnotic) threshold responses” value is “consistently elevated”. For the same compound, in data set [2], the “Antinociception” value came out at 1; the “Inhibition of Stress” value stood at 1; the “Muscle Relaxation” value came to 1; the “Sleep” value is reported as 3. For the same compound, in data set [2], the “TOTALS of Anesthesia Score” value was 6.
`CN1CC[C@]23c4c5ccc(O)c4O[C@H]2[C@@H](O)C=C[C@H]3[C@H]1C5.O=S(=O)(O)O` [morphine sulfate]: the “suppression of responses to stimulation” value in the data set on rabbits [6] (titrated IV to 2 mg/kg, under 60% N2O) is reported as “no animal had complete suppression of all responses”. Further, in the data set with rabbits [6] (setting [10]), the “BP (Systolic BP)” value was 105 ± 14 mmHg, the HR amounted to 242 ± 72 bpm, the PaCO2 was 31 ± 3 mmHg and the PaO2 came out at 123 ± 14 mmHg. Also, in the data set on rabbits [6] (setting [10]), the “RR (Respiratory Rate)” value is recorded as 47 ± 16 bpm.

The values above are taken from patent US6642209B1, “Use of adenosine compounds to alleviate or normalize pathologically hyperexcited sensory nerve function in a human patient” (priority 1990, dated 2003).
